Measurements from patent US20240376091A1, “THIADIAZOLEAMIDE DERIVATIVES AND THEIR APPLICATIONS” (ZHEJIANG UNIVERSITY, priority 2021, published 2024).

Target: T1, AR (Homo sapiens, UniProt P10275, T878A)
T1 construct: into the androgen-dependent PCa cells (LNCaP); endogenous in cells; host or cells: LNCaP-ARR2PB-eGFP
T1 sequence (P10275 1-920 T878A): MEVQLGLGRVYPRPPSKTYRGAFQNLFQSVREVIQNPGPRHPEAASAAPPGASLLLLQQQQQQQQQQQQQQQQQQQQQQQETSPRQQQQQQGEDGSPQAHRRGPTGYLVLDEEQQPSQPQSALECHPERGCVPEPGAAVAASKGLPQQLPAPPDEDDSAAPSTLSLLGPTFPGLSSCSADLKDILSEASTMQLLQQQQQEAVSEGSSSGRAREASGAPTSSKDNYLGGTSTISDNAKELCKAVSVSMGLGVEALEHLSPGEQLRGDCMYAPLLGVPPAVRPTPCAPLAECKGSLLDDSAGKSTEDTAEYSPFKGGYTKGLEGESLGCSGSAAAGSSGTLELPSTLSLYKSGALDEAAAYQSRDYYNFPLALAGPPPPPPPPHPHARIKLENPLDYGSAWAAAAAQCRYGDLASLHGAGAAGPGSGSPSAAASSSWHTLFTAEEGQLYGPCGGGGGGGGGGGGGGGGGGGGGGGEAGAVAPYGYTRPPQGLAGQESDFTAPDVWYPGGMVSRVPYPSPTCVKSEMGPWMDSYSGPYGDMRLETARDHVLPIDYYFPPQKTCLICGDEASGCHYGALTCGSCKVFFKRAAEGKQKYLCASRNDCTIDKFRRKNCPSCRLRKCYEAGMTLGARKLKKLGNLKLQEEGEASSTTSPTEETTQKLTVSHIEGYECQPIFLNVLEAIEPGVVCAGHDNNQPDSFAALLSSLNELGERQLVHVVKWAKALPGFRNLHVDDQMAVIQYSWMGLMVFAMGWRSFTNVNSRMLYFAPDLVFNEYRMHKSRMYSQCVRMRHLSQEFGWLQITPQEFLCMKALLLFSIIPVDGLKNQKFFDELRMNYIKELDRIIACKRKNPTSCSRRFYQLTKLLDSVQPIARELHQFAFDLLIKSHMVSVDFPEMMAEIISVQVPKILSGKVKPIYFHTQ
Assay: AR transcriptional activity, LNCaP-ARR2PB-eGFP reporter cells
Type: cell-based
Conditions: read-out: IC50 AR transcriptional activities
Source text: Detection principles: We conducted a stable transfection of promoter ARR2PB known for its strong AR responsiveness, into the androgen-dependent PCa cells (LNCaP). The expression of enhanced green fluorescent protein (eGFP) is depending on the degree of activation of AR. Therefore, LNCaP-ARR2PB-eGFP cell line could quantitatively determine the AR antagonistic activities of the compounds by evaluating the expression of eGFP.

SMILES	IC50 [nM]
Cc1oc(-c2cccc(OC(F)(F)F)c2)cc1C(=O)Nc1nc(CC(C)N(C)C)ns1 (centres unmarked) [Compound A-44, N-(3-(2-(dimethylamino)propyl)-1,2,4-thiadiazol-5-yl)-2-methyl-5-(3-(trifluoromethoxy)phenyl)furan-3-carboxamide]	60
CCN(CC)C(C)Cc1nsc(NC(=O)c2cc(-c3cccc(OC(F)F)c3)oc2C)n1 (centres unmarked) [Compound A-45, N-(3-(2-(diethylamino)propyl)-1,2,4-thiadiazol-5-yl)-5-(3-(difluoromethoxy)phenyl)-2-methylfuran-3-carboxamide]	40
Cc1oc(-c2cccc(C#N)c2)cc1C(=O)Nc1nc(CC(C)N2CCCC2)ns1 (centres unmarked) [Compound A-46, 5-(3-Cyanophenyl)-2-methyl-N-(3-(2-(pyrrolidin-1-yl)propyl)-1,2,4-thiadiazol-5-yl)furan-3-carboxamide]	410
COc1cccc(-c2cc(C(=O)Nc3nc(CC(C)N4CCCCC4)ns3)c(C)o2)c1 (centres unmarked) [Compound A-49, 5-(3-Methoxyphenyl)-2-methyl-N-(3-(2-(piperidin-1-yl)propyl)-1,2,4-thiadiazol-5-yl)furan-3-carboxamide]	210
Cc1oc(-c2cccc(C#N)c2)cc1C(=O)Nc1nc(CC(C)N2CCOCC2)ns1 (centres unmarked) [Compound A-52, 5-(3-Cyanophenyl)-2-methyl-N-(3-(2-morpholinopropyl)-1,2,4-thiadiazol-5-yl)furan-3-carboxamide]	760
Cc1oc(-c2cccc(C#N)c2)cc1C(=O)Nc1nc(CC(C)N2CCN(C)CC2)ns1 (centres unmarked) [Compound A-56, 5-(3-Cyanophenyl)-2-methyl-N-(3-(2-(4-methylpiperazin-1-yl)propyl)-1,2,4-thiadiazol-5-yl)furan-3-carboxamide]	840
Cc1oc(-c2cccc(C(F)(F)F)c2)cc1C(=O)Nc1nc(CC(C)O)ns1 (centres unmarked) [Compound A-60, N-(3-(2-hydroxypropyl)-1,2,4-thiadiazol-5-yl)-2-methyl-5-(3-(trifluoromethyl)phenyl)furan-3-carboxamide]	390
COC(C)Cc1nsc(NC(=O)c2cc(-c3cccc(C(F)(F)F)c3)oc2C)n1 (centres unmarked) [Compound A-61, N-(3-(2-methoxypropyl)-1,2,4-thiadiazol-5-yl)-2-methyl-5-(3-(trifluoromethyl)phenyl)furan-3-carboxamide]	3820
Cc1oc(-c2cccc(C(F)(F)F)c2)cc1C(=O)Nc1nc(CC(C)N)ns1 (centres unmarked) [Compound A-66, N-(3-(2-aminopropyl)-1,2,4-thiadiazol-5-yl)-2-methyl-5-(3-(trifluoromethyl)phenyl)furan-3-carboxamide]	1390
C/C(Cc1nsc(NC(=O)c2cc(-c3cccc(C(F)(F)F)c3)oc2C)n1)=N\O [Compound A-69, N-(3-(2-(hydroxyimino)propyl)-1,2,4-thiadiazol-5-yl)-2-methyl-5-(3-(trifluoromethyl)phenyl)furan-3-carboxamide]	540
CO/N=C(\C)Cc1nsc(NC(=O)c2cc(-c3cccc(C(F)(F)F)c3)oc2C)n1 [Compound A-70, N-(3-(2-(methoxyimino)propyl)-1,2,4-thiadiazol-5-yl)-2-methyl-5-(3-(trifluoromethyl)phenyl)furan-3-carboxamide]	880
CC(Cc1nsc(NC(=O)c2cc(-c3cccc(C(F)(F)F)c3)oc2C)n1)=C(F)F [Compound A-80, N-(3-(3,3-difluoro-2-methylallyl)-1,2,4-thiadiazol-5-yl)-2-methyl-5-(3-(trifluoromethyl)phenyl)furan-3-carboxamide]	810
Cc1oc(-c2cccc(C(F)(F)F)c2)cc1C(=O)Nc1nc(CC(C)(F)F)ns1 [Compound A-85, N-(3-(2,2-difluoropropyl)-1,2,4-thiadiazol-5-yl)-2-methyl-5-(3-(trifluoromethyl)phenyl) furan-3-carboxamide]	770
Cc1oc(-c2cccc(C(F)(F)F)c2)cc1C(=O)Nc1nc(CC(C)(C)O)ns1 [Compound A-90, N-(3-(2-hydroxy-2-methylpropyl)-1,2,4-thiadiazol-5-yl)-2-methyl-5-(3-(trifluoromethyl)phenyl)furan-3-carboxamide]	50
Cc1oc(-c2cccc(C(F)(F)F)c2)cc1C(=O)Nc1nc(CC(C)(C)N)ns1 [Compound A-93, N-(3-(2-amino-2-methylpropyl)-1,2,4-thiadiazol-5-yl)-2-methyl-5-(3-(trifluoromethyl)phenyl)furan-3-carboxamide]	30
CNC(C)Cc1nsc(NC(=O)c2cc(-c3cccc(C(F)(F)F)c3)oc2C)n1 (centres unmarked) [Compound A-96, 2-Methyl-N-(3-(2-(methylamino)propyl)-1,2,4-thiadiazol-5-yl)-5-(3-(trifluoromethyl)phenyl)furan-3-carboxamide]	160
Cc1oc(-c2cccc(C(F)(F)F)c2)cc1C(=O)Nc1ncns1 [Compound A-99, 2-Methyl-N-(1,2,4-thiadiazol-5-yl)-5-(3-(trifluoromethyl)phenyl)furan-3-carboxamide]	10400
Cc1oc(-c2cccc(C(F)(F)F)c2)cc1C(=O)Nc1nc(CCl)ns1 [Compound A-105, N-(3-(chloromethyl)-1,2,4-thiadiazol-5-yl)-2-methyl-5-(3-(trifluoromethyl)phenyl)furan-3-carboxamide]	22900
Cc1oc(-c2cccc(C(F)(F)F)c2)cc1C(=O)Nc1nc(CN(C)C)ns1 [Compound A-106, N-(3-((dimethylamino)methyl)-1,2,4-thiadiazol-5-yl)-2-methyl-5-(3-(trifluoromethyl)phenyl)furan-3-carboxamide]	1670
CCN(CC)Cc1nsc(NC(=O)c2cc(-c3cccc(C(F)(F)F)c3)oc2C)n1 [Compound A-107, N-(3-((diethylamino)methyl)-1,2,4-thiadiazol-5-yl)-2-methyl-5-(3-(trifluoromethyl)phenyl)furan-3-carboxamide]	1770
Cc1oc(-c2cccc(C(F)(F)F)c2)cc1C(=O)Nc1nc(CN2CCCC2)ns1 [Compound A-108, 2-Methyl-N-(3-(pyrrolidin-1-ylmethyl)-1,2,4-thiadiazol-5-yl)-5-(3-(trifluoromethyl)phenyl)furan-3-carboxamide]	840
Cc1oc(-c2cccc(C(F)(F)F)c2)cc1C(=O)Nc1nc(CN2CCOCC2)ns1 [Compound A-110, 2-Methyl-N-(3-(morpholinomethyl)-1,2,4-thiadiazol-5-yl)-5-(3-(trifluoromethyl)phenyl) furan-3-carboxamide]	250
Cc1oc(-c2cccc(C(F)(F)F)c2)cc1C(=O)Nc1nc(CN2CCN(C)CC2)ns1 [Compound A-111, 2-Methyl-N-(3-((4-methylpiperazin-1-yl)methyl)-1,2,4-thiadiazol-5-yl)-5-(3-(trifluoro-methyl)phenyl)furan-3-carboxamide]	570
Cc1oc(-c2cccc(C#N)c2)cc1C(=O)Nc1nc(CCl)ns1 [Compound A-112, N-(3-(chloromethyl)-1,2,4-thiadiazol-5-yl)-5-(3-cyanophenyl)-2-methylfuran-3-carboxamide]	1870
COc1cccc(-c2cc(C(=O)Nc3nc(CN(C)C)ns3)c(C)o2)c1 [Compound A-118, N-(3-((dimethylamino)methyl)-1,2,4-thiadiazol-5-yl)-5-(3-methoxyphenyl)-2-methylfuran-3-carboxamide]	2230
CCN(CC)Cc1nsc(NC(=O)c2cc(-c3cccc(OC(F)(F)F)c3)oc2C)n1 [Compound A-123, N-(3-((diethylamino)methyl)-1,2,4-thiadiazol-5-yl)-2-methyl-5-(3-(trifluoromethoxy)phenyl)furan-3-carboxamide]	590
Cc1oc(-c2cccc(OC(F)(F)F)c2)cc1C(=O)Nc1nc(CN2CCCC2)ns1 [Compound A-124, 2-Methyl-N-(3-(pyrrolidin-1-ylmethyl)-1,2,4-thiadiazol-5-yl)-5-(3-(trifluoromethoxy)phenyl)furan-3-carboxamide]	40
Cc1oc(-c2cccc(OC(F)F)c2)cc1C(=O)Nc1nc(CN2CCCCC2)ns1 [Compound A-129, 5-(3-(Difluoromethoxy)phenyl)-2-methyl-N-(3-(piperidin-1-ylmethyl)-1,2,4-thiadiazol-5-yl)furan-3-carboxamide]	60
Cc1oc(-c2cccc(OC(F)F)c2)cc1C(=O)Nc1nc(CN2CCOCC2)ns1 [Compound A-130, 5-(3-(Difluoromethoxy)phenyl)-2-methyl-N-(3-(morpholinomethyl)-1,2,4-thiadiazol-5-yl)furan-3-carboxamide]	670
